# Assay results published in patent US10076519B2 (CYTOKINETICS, INC., priority 2010, dated 2018).
# System: rabbit skeletal myofibrils (fast skeletal myofibrils)
# Experiment: Activation of fast skeletal myofibrils (PUMA assay, PK/LDH-coupled ATPase at pCa25)
# Assay type: biochemical
# Conditions: median AC1.4 class, procedure of Example 39
# Procedure, shortened: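 ATPase activity of Triton-washed rabbit skeletal myofibrils, roughly 90% fast fibres, tracked by NADH loss at 340 nm through a PK/LDH-coupled ADP-regenerating system. Calcium set to 25% of maximal activity (pCa25), in PIPES 12 mM pH 6.8 with 2 mM MgCl2 and 1 mM DTT; AC1.4 reported.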
row,SMILES,Mean AC1.4
1,O=C(Nc1ccn[nH]1)c1ccc(NCC2(c3ncccc3F)CCC2)nn1 [[6-({[(3-fluoro(2-pyridyl))cyclobutyl]methyl}ami-no)pyridazin-3-yl]-N-pyrazol-5-ylcarboxamide],B (B=1-10 uM)
2,Fc1cccnc1C1(Nc2ccc(-c3ccccc3)nn2)CCC1 [[(3-fluoro(2-pyridyl))cyclobutyl](6-phenylpyridazin-3-yl)amine],B (B=1-10 uM)
3,C=Cc1ccc(NC2(c3ncccc3F)CCC2)nn1 [[(3-fluoro(2-pyridyl))cyclobutyl](6-vinylpyridazin-3-yl)amine],D (D=>20 uM)

# Second part, the compound after the results:
row,Mean AC1.4,SMILES
1,B (B=1-10 uM),Fc1ccc(C2(Nc3ccc(-c4ccncc4)nn3)CCC2)cc1 [[(4-fluorophenyl)cyclobutyl](6-(4-pyridyl)pyridazin-3-yl)amine]
2,B (B=1-10 uM),Fc1ccc(C2(Nc3ccc(-c4cn[nH]c4)nn3)CCC2)cc1 [[(4-fluorophenyl)cyclobutyl](6-pyrazol-4-ylpyridazin-3-yl)amine]
3,A (A=<1 uM),COc1ncccc1-c1ccc(NC2(c3ccc(F)cc3)CCC2)nn1 [[(4-fluorophenyl)cyclobutyl][6-(2-methoxy(3-pyridyl))pyridazin-3-yl]amine]
4,B (B=1-10 uM),COc1cc(-c2ccc(NC3(c4ccc(F)cc4)CCC3)nn2)ccn1 [[(4-fluorophenyl)cyclobutyl][6-(2-methoxy(4-pyridyl))pyridazin-3-yl]amine]
5,B (B=1-10 uM),Cc1cc(-c2ccc(NC3(c4ccc(F)cc4)CCC3)nn2)ccn1 [[(4-fluorophenyl)cyclobutyl][6-(2-methyl(4-pyridyl))pyridazin-3-yl]amine]
6,B (B=1-10 uM),COc1cccc(-c2ccc(NC3(c4ccc(F)cc4)CCC3)nn2)n1 [[(4-fluorophenyl)cyclobutyl][6-(6-methoxy(2-pyridyl))pyridazin-3-yl]amine]
7,B (B=1-10 uM),"Fc1ccc(C2(Nc3ccc(-c4cccnc4OCC(F)(F)F)nn3)CCC2)cc1 [[(4-fluorophenyl)cyclobutyl]{6-[2-(2,2,2-trifluoroethoxy)(3-pyridyl)]pyridazin-3-yl}amine]"

# Same assay, conditions: median AC1.4 reported as class; procedure of Example 39
row,Mean AC1.4,SMILES
1,D (D=>20 uM),O=C1CCC(CNC(=O)c2ccc(NCC3(c4ncccc4F)CCC3)nn2)N1 (centres unmarked) [[6-({[(3-fluoro(2-pyridyl))cyclobutyl]methyl}ami-no)pyridazin-3-yl]-N-[(5-oxopyrrolidin-2-yl)methyl]carboxamide]
2,C (C=10-20 uM),O=C(Nc1ncc[nH]1)c1ccc(NCC2(c3ncccc3F)CCC2)nn1 [[6-({[(3-fluoro(2-pyridyl))cyclobutyl]methyl}ami-no)pyridazin-3-yl]-N-imidazol-2-ylcarboxamide]
3,B (B=1-10 uM),O=C(Nc1ccon1)c1ccc(NCC2(c3ncccc3F)CCC2)nn1 [[6-({[(3-fluoro(2-pyridyl))cyclobutyl]methyl}ami-no)pyridazin-3-yl]-N-isoxazol-3-ylcarboxamide]
4,D (D=>20 uM),"CN(Cc1nccs1)C(=O)c1ccc(NCC2(c3ncccc3F)CCC2)nn1 [[6-({[(3-fluoro(2-pyridyl))cyclobutyl]methyl}ami-no)pyridazin-3-yl]-N-methyl-N-(1,3-thiazol-2-ylmethyl)carboxamide]"
5,D (D=>20 uM),CNC(=O)c1ccc(NCC2(c3ncccc3F)CCC2)nn1 [[6-({[(3-fluoro(2-pyridyl))cyclobutyl]methyl}ami-no)pyridazin-3-yl]-N-methylcarboxamide]
6,C (C=10-20 uM),"OC[C@H]1CNCCN1Cc1cnc(-c2ccc(NCC3(c4ncccc4F)CCC3)nn2)s1 [[(2R)-1-({2-[6-({[(3-fluoro(2-pyridyl))cyclobutyl]methyl}ami-no)pyridazin-3-yl](1,3-thiazol-5-yl)}methyl)piperazin-2-yl]methan-1-ol]"
7,B (B=1-10 uM),"OC[C@@H]1CNCCN1Cc1cnc(-c2ccc(NCC3(c4ncccc4F)CCC3)nn2)s1 [[(2S)-1-({2-[6-({[(3-fluoro(2-pyridyl))cyclobutyl]methyl}ami-no)pyridazin-3-yl](1,3-thiazol-5-yl)}methyl)piperazin-2-yl]methan-1-ol]"
